Structures can show the parent of a compound that is named as a salt.
Experiments:
α1-adrenergic receptor = experiment: inhibition of prazocine[3H] binding in rat brain tissue
Protocol: (§1) The activity of derivatives of formula 1 as DRD3 ligands, modulators of the activity of DRD3 according to the invention, was evaluated on cells expressing human recombinant DRD3. […] These same compounds show an apparent affinity for the dopamine D2 receptor that is 100 to 500 times weaker. These same compounds have an affinity for the α1 adrenergic receptor that is 20 to 500 times weaker than that for the D3 receptor. The compounds of formula 1 are either antagonists (intrinsic activity<0.10), partial agonists (0.2<intrinsic activity<0.6) or full agonists (intrinsic activity>0.8). The biological results relative to certain compounds of formula 1 are presented in table 2 at the end of the description.

dopamine D3 receptor = molecular target: T1, dopamine D3 receptor (Homo sapiens, UniProt P35462); experiment: inhibition of spiperone[3H] binding in CHO cells, dopamine D3 receptor; settings: read-out: pKi D3 (converted)
T1 construct: expressed in transfected cells
Protocol: as §1

dopamine D2 receptor = molecular target: T2, dopamine D2 receptor (Homo sapiens, UniProt P14416); experiment: inhibition of spiperone[3H] binding in CHO cells, dopamine D2 receptor; settings: read-out: pKi D2 (converted)
T2 construct: expressed in transfected cells
Protocol: as §1

human recombinant DRD3 = molecular target: T3, human recombinant DRD3 (Homo sapiens, UniProt P35462); experiment: intrinsic activity on cells expressing human recombinant DRD3; format: cell-based; settings: antagonists <0.10, partial agonists 0.2-0.6, full agonists >0.8
T3 construct: expressed in transfected cells
Text: As used above, the term “D3 receptor partial agonist” denotes a compound that forms a complex with DRD3 and that acts as a combined agonist-antagonist, i.e., it induces a physiological response whose intensity is less than that of the natural mediator, dopamine. In vitro, in a cell expressing DRD3, a DRD3 partial agonist produced an active response whose maximum intensity was lower than that produced by dopamine or a by a full agonist, for example quinpirole[(4aR-trans)-4,4a,5,6,7,8,8a,9 octahydro-5-propyl-1H (or 2H)-pyrazolo(3,4-g)quinoline]. A DRD3 partial agonist can also partially prevent the response produced by dopamine or by its full agonists. In vivo, a DRD3 partial agonist produces dopaminergic responses, particularly when dopamine levels are lowered, as is the case with rats with lesions caused by 6-hydroxydopamine or monkeys injected with 1 methyl-4-phenyl-1,2,3,6-tetrahydropyridine (MPTP). Moreover, a DRD3 partial agonist can act as an antagonist in vivo, particularly when DRD3 is subject to sustained dopamine stimulation.
as §1

T2 sequence (P14416 whole entry, species assumed): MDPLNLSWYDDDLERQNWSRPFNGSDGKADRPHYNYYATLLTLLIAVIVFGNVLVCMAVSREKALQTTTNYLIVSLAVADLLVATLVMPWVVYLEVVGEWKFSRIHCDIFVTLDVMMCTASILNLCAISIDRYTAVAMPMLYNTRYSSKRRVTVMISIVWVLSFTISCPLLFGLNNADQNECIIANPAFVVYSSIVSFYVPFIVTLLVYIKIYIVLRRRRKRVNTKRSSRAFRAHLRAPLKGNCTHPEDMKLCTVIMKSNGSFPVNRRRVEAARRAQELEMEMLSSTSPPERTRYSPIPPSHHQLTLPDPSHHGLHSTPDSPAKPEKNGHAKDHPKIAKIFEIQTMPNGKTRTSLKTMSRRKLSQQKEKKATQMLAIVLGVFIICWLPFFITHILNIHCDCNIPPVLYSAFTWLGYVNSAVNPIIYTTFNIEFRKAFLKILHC
T1 sequence (P35462 whole entry): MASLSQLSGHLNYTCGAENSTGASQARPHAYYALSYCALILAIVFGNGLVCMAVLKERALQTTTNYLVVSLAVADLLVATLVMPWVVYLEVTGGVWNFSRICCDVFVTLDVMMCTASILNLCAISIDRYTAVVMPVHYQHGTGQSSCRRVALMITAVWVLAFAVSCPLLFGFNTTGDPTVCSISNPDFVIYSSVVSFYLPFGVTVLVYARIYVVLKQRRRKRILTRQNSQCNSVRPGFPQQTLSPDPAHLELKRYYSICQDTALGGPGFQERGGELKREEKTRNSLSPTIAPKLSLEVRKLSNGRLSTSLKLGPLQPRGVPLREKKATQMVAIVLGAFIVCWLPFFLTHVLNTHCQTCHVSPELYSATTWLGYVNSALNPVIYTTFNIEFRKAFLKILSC
T3 sequence (P35462 whole entry): as above

pKi α1 (α1-adrenergic receptor)	Ki (dopamine D3 receptor)	Ki (dopamine D2 receptor)	Intrinsic activity (human recombinant DRD3)	melting point	Structure (SMILES)
7.81	0.603 nM	132 nM	–	–	O=C(NCCCCN1CCN(c2cccc3c2OCCO3)CC1)C1=Cc2ccccc2OC1 [Example 105, 2H-chromene-3-carboxylic acid {4-[4-(2,3-dihydro-benzo[1,4]dioxin-5-yl)-piperazin-1-yl]-butyl}-amide]
8.44	0.0676 nM	7.59 nM	0.81	–	O=C(NCCCCN1CCN(c2cccc3[nH]c(=O)oc23)CC1)C1=Cc2ccccc2OC1 [Example 110, 2H-chromene-3-carboxylic acid {4-[4-(2-oxo-2,3-dihydro-benzoxazol-7-yl)-piperazin-1-yl]-butyl}-amide]
7.84	0.676 nM	141 nM	0.26	–	O=C(NCCCCN1CCN(c2cccc3c2OCC3)CC1)C1=Cc2ccccc2OC1 [Example 111, 2H-chromene-3-carboxylic acid {4-[4-(2,3-dihydro-benzofuran-7-yl)-piperazin-1-yl]-butyl} amide]
6.78	0.219 nM	34.7 nM	0	–	CS(=O)(=O)Nc1cccc(N2CCN(CCCCNC(=O)C3=Cc4cc(Cl)ccc4OC3)CC2)c1 [Example 89, 6-chloro-2H-chromene-3-carboxylic acid {4-[4-(3-mesylamino-phenyl}-piperazin-1-yl]-butyl}-amide]
–	0.794 nM	251 nM	–	–	COc1ccc2c(c1)C=C(C(=O)NCCCCN1CCN(c3cccc(Cl)c3Cl)CC1)CO2 [Example 55, 6-Methoxy-2H-chromene-3-carboxylic acid {4-[4-(2,3-dichlorophenyl)-piperazin-1-yl]-butyl}-amide]
8.05	0.219 nM	93.3 nM	0.59	–	O=C(NCCCCN1CCN(c2cccc3[nH]ccc23)CC1)C1=Cc2ccccc2OC1 [Example 102, 2H-chromene-3-carboxylic acid {4-[4-(1H-indol-4-yl)-piperazin-1-yl]-butyl}-amide]
–	–	–	–	236 °C	O=C(NCCCCN1CCN(c2ccc(O)cc2)CC1)C1=Cc2ccccc2OC1 (as salt: HCl) [Example 59, 2H-Chromene-3-carboxylic acid {4-[4-(4-hydroxyphenyl)-piperazin-1-yl]-butyl}-amide]
–	–	–	–	165 °C	COc1ccc2c(c1)C=C(C(=O)NCCCCN1CCN(c3ccccc3OC)CC1)CO2 (as salt: HCl) [Example 54, 6-Methoxy-2H-chromene-3-carboxylic acid {4-[4-(2-methoxyphenyl)piperazin-1-yl]-butyl}-amide]

Second part, the compound before the results:

Structure (SMILES)	pKi α1 (α1-adrenergic receptor)	Ki (dopamine D3 receptor)	Ki (dopamine D2 receptor)	Intrinsic activity (human recombinant DRD3)	melting point
O=C(NCCCCN1CCN(c2cccc(O)c2)CC1)C1=Cc2ccccc2SC1 [Example 41, 2H-Thiochromene-3-carboxylic acid {4-[4-(3-hydroxyphenyl)-piperazin-1-yl]-butyl}-amide]	7.08	0.661 nM	3800 nM	0.64	–
COc1ccc2c(c1)C=C(C(=O)NCCCCN1CCN(c3ccccc3OC)CC1)CO2 [Example 54, 6-Methoxy-2H-chromene-3-carboxylic acid {4-[4-(2-methoxyphenyl)piperazin-1-yl]-butyl}-amide]	8.05	0.537 nM	417 nM	–	–
O=C(NCCCCN1CCN(c2cccc(C(F)(F)F)c2)CC1)C1=Cc2ccccc2OC1 [Example 16, 2H-Chromene-3-carboxylic acid {4-[4-(3-trifluoromethylphenyl)-piperazin-1-yl]-butyl}-amide]	7.55	2.69 nM	447 nM	–	–
O=C(NCCCCN1CCN(c2cccc(Cl)c2Cl)CC1)C1=Cc2ccccc2OC1 [Example 2, 2H-Chromene-3-carboxylic acid {4-[4-(2,3-dichlorophenyl)-piperazin-1-yl]-butyl}-amide]	7.29	0.813 nM	123 nM	–	–
O=C(NCCCCN1CCN(c2ccccc2F)CC1)C1=Cc2ccccc2SC1 (as salt: HCl) [Example 33, 2H-Thiochromene-3-carboxylic acid {4-[4-(2-fluorophenyl)piperazin-1-yl]-butyl}-amide]	–	–	–	–	212 °C
COc1ccc(Br)c2c1OCC(C(=O)NCCCCN1CCN(c3ccccc3F)CC1)=C2 (as salt: hydrochloride) [Example 49, 5-Bromo-8-methoxy-2H-chromene-3-carboxylic acid {4-[4 (2-fluorophenyl)-piperazin-1-yl]-butyl}-amide hydrochloride]	–	–	–	–	157 °C
COc1ccccc1N1CCN(CCCCNC(=O)C2=Cc3c(Br)ccc(OC)c3OC2)CC1 (as salt: HCl) [Example 50, 5-Bromo-8-methoxy-2H-chromene-3-carboxylic acid {4-[4-(2-methoxyphenyl)piperazin-1-yl]-butyl}-amide]	–	–	–	–	176 °C
N#Cc1cccc(N2CCN(CCCCNC(=O)C3=Cc4ccccc4SC3)CC2)c1 [Example 35, 2H-Thiochromene-3-carboxylic acid {4-[4-(3-cyanophenyl)-piperazin-1-yl]-butyl}-amide]	7.32	2.4 nM	3160 nM	0.18	–
O=C(NCCCCN1CCN(c2cccc(O)c2)CC1)C1=Cc2ccccc2OC1 (as salt: HCl) [Example 53, 2H Chromene-3-carboxylic acid {4-[4-(3-hydroxyphenyl)-piperazin-1-yl]-butyl}-amide]	–	–	–	–	199 °C

— US20100029682A1, “NOVEL CHROMENE AND THIOCHROMENE CARBOXAMIDE DERIVATIVES, METHODS FOR PREPARING SAME AND THERAPEUTIC APPLICATIONS OF SAME” (priority 2006, published 2010)
